The test system of assay [1] is active β-catenin. As to the kind of experiment: Western blot of active β-catenin after LiCl treatment of 293H and CCD1079SK cells. The format is cell-based, human. The note with it: 20 μM LiCl, 24 h in serum-free medium, FIG. 3B. As to the method: For positive regulation with LiCl treatment, 293H and CCD1079SKcells were plated in 6-well plate in a density of 2×10^5 cells/well/2 ml and cells were switched to serum-free medium 24 hours after plating. After 12 hours incubation in serum-free medium, cells were treated with or without 20 μM LiCl for 24 h in serum-free medium. At the end of treatment, cells were lysed in 200 μl of G6 lysis buffer and RNA was isolated with RT2 qPCR-Grade RNA Isolation Kit from SABiosciences according to manufacturer's protocol described in experimental protocol section. The protein extraction and western blot was carried out according to western blot protocol with mouse anti-active β-catenin antibody (1:1000). […] The RNA was isolated with RT2 qPCR-Grade RNA Isolation Kit from SABiosciences according to manufacturer's protocol described in experimental protocol section.
(§1) At the end of experimental treatment, cells were lysed in Modified RIPA buffer (150 mM NaCl, 50 mM TrisHCl, 1% IGEPAL, 0.5% sodium deoxycholate, 1 mM EDTA, 1% Triton X-100 and 0.1% SDS with protease and phosphatase inhibitor) (all chemicals from Sigma). […] After 15 minutes centrifuge at 15000 rpm at 4 degrees C., supernatant was transferred to a new 1.5 ml tube and protein concentration was measured with BCA protein assay according to manufacturer's standard protocol (Pierce). […]

For assay [2], the system named is Wnt/β-catenin target genes such as β-catenin (CTNNB1), MYC, CCND1 and AXIN2. The assay can be described thus: Real-time RT-PCR of Wnt/β-catenin target genes after Wnt3a treatment of 293H cells. It counts as cell-based, human. As to conditions: 400 ng/ml Wnt3a, 12 hours, compared to untreated samples, FIG. 2B. As to the method: (§2) The protocol that was used to identify the subject gene signature is depicted schematically in FIG. 1. As depicted therein, human embryonic kidney 293H cells were plated in 6-well plate in a density of 10′ cells per well in 2 ml growth medium. Plated cells were incubated in a cell culture incubator at 37 degrees C. with 5% CO2 supplied. Twenty four hours after plating, cells were transfected with siRNA specifically targeting β-catenin or non targeting siRNA as control. For each well, 6 μl of SureFECT transfection reagent (SABiosciences, a QIAGEN company) was diluted into 200 μl of OptiMEM medium (Invitrogen). The diluted transfection reagent was mixed with 20 nM −β catenin targeting siRNA duplex D ([…] (SEQ ID NO: 65)) (SABiosciences, a QIAGEN Company) or non-targeting siRNA ([…] (SEQ ID NO: 66)) (SABiosciences, a QIAGEN owned company) as control. After incubation at room temperature for 20 min, the transfection mixture was added into 293H cells in 6-well plate with 2 ml growth medium. […]
For RNA extraction, cells were lysed in 200 μl of G6 buffer (SABiosciences, a QIAGEN company) for each well. […] The concentration of RNA was measured with Nanodrop spectrophotometer (Thermo SCIENTIFIC) and the RNA was further processed for real-time RT PCR or microarray gene expression profiling analysis. […]

The test system of assay [3] is active β-catenin. As to the kind of experiment: Western blot of active β-catenin after Wnt3a treatment of 293H cells. As to conditions: 400 ng/ml Wnt3a, 12 hour treatment in serum-free medium, compared to untreated samples, FIG. 2A. It counts as cell-based, human. As to the method:
as §2, with “control.” for “control. After incubation at room temperature for 20 min, the transfection mixture was added into 293H cells in 6-well plate with 2 ml growth medium.”
as §1

Assay [4] deals with active β-catenin. As to the kind of experiment: Western blot of active β-catenin after Wnt3a treatment of ten different cell lines. It counts as cell-based. As to conditions: 400 ng/ml Wnt3a, 12 h in serum-free medium, FIG. 3B. The procedure:
To obtain ten positively regulated samples with Wnt3a treatment, ten different cell lines were plated in 6-well plates in a density of 2×10^5 cells/well/2 ml. After 24 h of plating, cells were switched to serum-free medium by removing normal culture medium, washing cells in PBS two times and replacing with 1 ml serum-free medium each well. After 12 hours in serum-free medium, cells were replaced with serum-free medium with or without 400 ng/ml Wnt3a in duplicate wells for an additional incubation of 12 h. At the end of 12 hours incubation, cells were either lysed in 50 μl modified RIPA buffer for protein lysate extraction or in 200 μl G6 lysis buffer for RNA isolation. The protein extraction and western blot was carried out according to western blot protocol with mouse anti-active β-catenin antibody (1:1000). […]
as §1
Background: Immunoblotting shows a protein as a band on a membrane.

Take `[Cl-].[Li+]` [LiCl]: the “active β-catenin protein levels” value in the assay on active β-catenin [1] was “increased active β-catenin protein levels”.
For Wnt3a, in assay [2], the “mRNA expression of Wnt/β-catenin target genes (CTNNB1, MYC, CCND1, AXIN2)” value is given as “upregulation of Wnt/β-catenin target genes”. Moreover, in the assay with active β-catenin [3], the “protein levels of active β-catenin” value is “increased protein levels of active β-catenin”. In addition, the “active β-catenin protein levels” value in the assay on active β-catenin [4] is on record as “increased active β-catenin protein levels”.

For the origin of these results see patent US20120252689A1, “GENE EXPRESSION SIGNATURE FOR WNT/B-CATENIN SIGNALING PATHWAY AND USE THEREOF” (priority 2011, published 2012).
